Source: PMC9532951, “Identification and characterization of a novel SNAT2 (SLC38A2) inhibitor reveals synergy with glucose transport inhibition in cancer cells” (Frontiers in Pharmacology, 2022)
“And” between values parts separate entries of the source, which are not always exact repeats. Identical values can stand only once.

Assays:
SNAT1 and SNAT2 [1] = molecular target: T1, SNAT1 and SNAT2 (Homo sapiens, UniProt Q96QD8); assay: FMP assay in HCC1806 clones C10 (ASCT2ko) and D126 (ASCT2ko, SNAT2ko); format: cell-based; conditions: 10 mM; HCC1806 wildtype and C10 cells
T1 construct: endogenous in cells; host or cells: HCC1806 clone C10 (ASCT2ko) and clone D126 (ASCT2ko, SNAT2ko), amino acid depleted for 24 h
T1 sequence (Q96QD8 1-506): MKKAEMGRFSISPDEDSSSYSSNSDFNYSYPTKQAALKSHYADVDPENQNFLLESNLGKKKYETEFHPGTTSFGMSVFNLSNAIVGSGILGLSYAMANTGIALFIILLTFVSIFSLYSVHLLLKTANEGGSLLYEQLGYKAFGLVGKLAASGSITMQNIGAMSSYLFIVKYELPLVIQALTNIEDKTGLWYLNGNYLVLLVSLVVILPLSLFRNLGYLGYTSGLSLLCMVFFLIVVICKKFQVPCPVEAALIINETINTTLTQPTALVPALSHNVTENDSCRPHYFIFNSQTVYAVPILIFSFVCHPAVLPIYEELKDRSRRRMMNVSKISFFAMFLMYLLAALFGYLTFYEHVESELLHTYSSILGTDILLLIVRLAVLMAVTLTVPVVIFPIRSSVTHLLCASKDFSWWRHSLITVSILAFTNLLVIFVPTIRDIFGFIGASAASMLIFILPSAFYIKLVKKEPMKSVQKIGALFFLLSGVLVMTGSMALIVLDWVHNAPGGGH
Description: (§1) To delete the SNAT2 (SLC38A2) gene in modified HCC1806 cells (clone C10 nullizygous for ASCT2 ([Broer et al., 2019])), the GeneArt CRISPR Nuclease Vector with OFP Reporter Kit (Invitrogen; A21174) was employed and complementary 19–20 bp long single-stranded oligonucleotides with overhangs were designed to produce a guide RNA (gRNA) for the Cas9 nuclease that would target exon 7 of the SNAT2 gene. Colonies were analysed by sequencing using the U6 primer included in the GeneArt CRISPR Nuclease Vector with OFP Reporter kit. Plasmids that contained the correct CRISPR nuclease construct were then used to transfect HCC1806 cells with Lipofectamine 2000 (Invitrogen). Prior to transfection, medium was replaced with 2 ml of fresh DMEM/F-12 (supplemented with 10% heat-inactivated FBS and 2 mM glutamine). Plasmid DNA (4 µg) and 10 µL of Lipofectamine 2000 were incubated separately for 5 min at room temperature in 500 µl of Opti-MEM (Invitrogen) before being combined and incubated for a further 30 min at room temperature. The DNA-Lipofectamine complex was then added to the cells in a dropwise manner and allowed to be absorbed over 6 h at 37°C, after which the medium was renewed with fresh DMEM/F-12. Cells were checked for red fluorescence using an EVOS FL cell imaging system (Thermo Fisher Scientific) 48–72 h post transfection. Subsequently, cells were detached using 0.25% Trypsin EDTA. After harvesting and washing thrice with PBS (pH 7.4), cells were resuspended in PBS (pH 7.4) supplemented with 5 mM glucose and 1% dialysed and heat inactivated FBS and passed through a 100 μm cell strainer. The cell filtrate was then pelleted once more and resuspended in the same buffer. Cells were sorted using an ARIA II FACS machine and individually dispensed into the wells of a 96-well plate. Nullizygous clones were identified using a series of assays including the FLIPR membrane potential assay, western blotting and sequencing.
(§2) The FLIPR Membrane Potential Blue Explorer Kit (Molecular Devices) was used to characterise inhibitors and to optimise a high-throughput compound screen. Cells were seeded at approximately 60,000 cells/well on a 96-well plate and allowed to attach and grow overnight in a cell incubator. The next day, the cells were washed once with mHBSS and incubated in a starvation medium (composed of mHBSS with 1% dialysed heat-inactivated FBS, 23 mM NaHCO3, 10 U/ml penicillin and 10 μg/ml streptomycin) for 24 h. Cells were then washed once with mHBSS and incubated with 50 µl of the mHBSS-resuspended FMP assay dye and 50 µl of mHBSS (with or without inhibitors) and incubated at room temperature for 30 min. The plate was then placed in an EnSpire Multimode plate reader (PerkinElmer) and four sequential measurements of fluorescence were recorded as a baseline reference. Immediately after the baseline measurements were taken, 25 µl of 5 mM glutamine dissolved in mHBSS was injected into each well and the plate was shaken orbitally for 5 s before a series of consecutive fluorescence measurements were taken. The excitation wavelength was set to 530 nm and the emission was detected at 565 nm. The Δ fluorescent signal reported in the figures was taken 30 s after substrate addition. After the assay was complete, the liquid content of the plate was carefully removed, and the cell monolayer inspected to ensure it remained intact throughout the course of the assay.

SNAT1 and SNAT2 [2] = molecular target: T2, SNAT1 and SNAT2 (Homo sapiens, UniProt Q9H2H9); assay: as above; format: cell-based; conditions: D126 cells
T2 construct: endogenous in cells; host or cells: HCC1806 clone C10 (ASCT2ko) and clone D126 (ASCT2ko, SNAT2ko), amino acid depleted for 24 h
T2 sequence (Q9H2H9 1-487): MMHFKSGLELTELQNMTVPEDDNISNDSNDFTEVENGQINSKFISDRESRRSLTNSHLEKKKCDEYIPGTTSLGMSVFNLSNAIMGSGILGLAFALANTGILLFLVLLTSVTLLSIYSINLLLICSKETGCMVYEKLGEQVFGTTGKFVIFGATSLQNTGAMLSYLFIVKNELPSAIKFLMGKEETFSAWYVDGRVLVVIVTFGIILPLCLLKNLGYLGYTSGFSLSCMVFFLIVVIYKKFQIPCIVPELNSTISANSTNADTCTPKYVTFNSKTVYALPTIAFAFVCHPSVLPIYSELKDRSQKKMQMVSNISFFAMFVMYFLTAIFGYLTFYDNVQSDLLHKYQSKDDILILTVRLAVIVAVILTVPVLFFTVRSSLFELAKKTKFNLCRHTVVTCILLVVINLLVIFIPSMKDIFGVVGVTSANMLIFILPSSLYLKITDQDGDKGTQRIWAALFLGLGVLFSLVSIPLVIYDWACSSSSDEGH
Description: as §1, §2

| Structure (SMILES) | FMP signal as substrate (SNAT1 and SNAT2 [1]) | block of glutamine (1 mM) FMP signal (SNAT1 and SNAT2 [2]) | FMP fluorescence (SNAT1 and SNAT2 [2]; time 0, replicates 1-10) | FMP fluorescence (SNAT1 and SNAT2 [2]; time 12, replicates 1-10) | FMP fluorescence (SNAT1 and SNAT2 [2]; time 30, replicates 1-10) | FMP fluorescence (SNAT1 and SNAT2 [2]; time 40, replicates 1-10) | FMP fluorescence (SNAT1 and SNAT2 [2]; time 50, replicates 1-10) | FMP fluorescence (SNAT1 and SNAT2 [2]; time 60, replicates 1-10) | FMP fluorescence (SNAT1 and SNAT2 [2]; time 70, replicates 1-10) | FMP fluorescence (SNAT1 and SNAT2 [2]; time 80, replicates 1-10) | FMP fluorescence (SNAT1 and SNAT2 [2]; time 90, replicates 1-10) | FMP fluorescence (SNAT1 and SNAT2 [2]; time -10, replicates 1-10) | FMP fluorescence (SNAT1 and SNAT2 [2]; time -20, replicates 1-10) |
| --- | --- | --- | --- | --- | --- | --- | --- | --- | --- | --- | --- | --- | --- |
| C[N+](C)(C)CC(=O)O [Betaine, betaine] | strong FMP signal |  |  |  |  |  |  |  |  |  |  |  |  |
| N[C@@H](CCC(=O)NO)C(=O)O [GHX, L-glutamic acid γ-monohydroxamate] |  | still blocked | 22435 and 17495 and 17429 and 17955 and 18811 and 18812 and 18737 and 18055 and 17050 and 17347 | 20191 | 20609 and 15706 and 15219 and 15815 and 16260 and 16292 and 16468 and 15594 and 14527 and 15164 | 20541 and 15480 and 15193 and 15674 and 16277 and 16260 and 16583 and 15586 and 14696 and 15217 | 20610 and 15277 and 15074 and 15756 and 16154 and 16238 and 16249 and 15554 and 14656 and 15194 | 20690 and 15464 and 15031 and 15758 and 16045 and 16010 and 16126 and 15471 and 14546 and 15121 | 20527 and 15130 and 14967 and 15329 and 16082 and 16096 and 16209 and 15213 and 14316 and 15085 | 20404 and 15072 and 14875 and 15595 and 16009 and 15975 and 15951 and 15190 and 14182 and 15130 | 20524 and 15134 and 14788 and 15354 and 15654 and 15782 and 15863 and 15065 and 14296 | 22909 and 17766 and 17765 and 18446 and 19408 (2×) and 19505 and 18694 and 17349 and 17632 | 23556 and 18431 and 18738 and 19301 and 20185 and 20456 and 20335 and 19156 and 18269 and 18621 |
